Laboratory results published in patent publication US20240262832A1, “SMALL MOLECULE MODULATORS OF GLUCOCEREBROSIDASE ACTIVITY AND USES THEREOF” (Vanqua Bio, Inc., priority 2021, published 2024).

Target: T1, GCase (Homo sapiens, UniProt P04062)
T1 construct: endogenous in cells; host or cells: HeLa cells
T1 sequence (P04062 40-536): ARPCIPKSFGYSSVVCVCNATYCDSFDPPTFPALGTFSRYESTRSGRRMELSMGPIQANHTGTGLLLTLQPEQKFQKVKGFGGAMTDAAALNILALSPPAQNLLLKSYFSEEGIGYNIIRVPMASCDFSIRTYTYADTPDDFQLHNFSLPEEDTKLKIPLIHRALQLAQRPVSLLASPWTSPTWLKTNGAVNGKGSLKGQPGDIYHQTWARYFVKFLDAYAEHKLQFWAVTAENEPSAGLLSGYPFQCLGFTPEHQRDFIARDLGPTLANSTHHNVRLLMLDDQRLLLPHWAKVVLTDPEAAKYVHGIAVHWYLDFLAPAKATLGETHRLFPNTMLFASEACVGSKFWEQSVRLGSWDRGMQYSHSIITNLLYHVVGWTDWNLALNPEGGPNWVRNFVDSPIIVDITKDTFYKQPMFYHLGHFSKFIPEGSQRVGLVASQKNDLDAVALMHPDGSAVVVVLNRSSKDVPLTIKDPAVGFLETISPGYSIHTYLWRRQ
Test: activation of GCase in a live cell PFB assay in HELA cells
Assay type: cell-based

Row | Compound | EC50
1 | O=C(c1ccc(N2CCCCCC2)cc1)N1CCCC(COc2ccccc2)C1 (stereo not drawn) [Compound 156] | 10 to 50 µM
2 | O=C(Cc1cc(Cl)cs1)N1CCCC(COc2ccccc2)C1 (stereo not drawn) [Compound 161] | 10 to 50 µM
3 | Cc1cc(C(=O)N2CCCC(COc3ccccc3)C2)c(C)n1C(C)C (stereo not drawn) [Compound 170] | 10 to 50 µM
4 | COC1(C(=O)N2CCCC(COc3ccccc3)C2)CCCCCCC1 (stereo not drawn) [Compound 176] | 10 to 50 µM
5 | CCCCC1(C(=O)N2CCCC(COc3ccccc3)C2)CCC1 (stereo not drawn) [Compound 177] | 10 to 50 µM
6 | CCCCC[C@H]1CC[C@H](C(=O)N2CCCC(COc3ccccc3)C2)CC1 (stereo partly drawn) [Compound 178] | < 10 µM
7 | O=C(N1CCCC(COc2ccccc2)C1)C12CC3CC(CC(C3)C1)C2 (stereo not drawn) [Compound 204] | 10 to 50 µM
8 | CC(C)c1cc(C(=O)N2CCCC(COc3ccccc3)C2)c(C(C)C)o1 (stereo not drawn) [Compound 207] | < 10 µM
9 | O=C(C1CCCCC12CC2)N1CCCC(COc2ccccc2)C1 (stereo not drawn) [Compound 209] | 10 to 50 µM
10 | O=C(CC12CCC(CC1)C2)N1CCCC(COc2ccccc2)C1 (stereo not drawn) [Compound 213] | 10 to 50 µM
11 | O=C(c1ccn2c1CSCC2)N1CCCC(COc2ccccc2)C1 (stereo not drawn) [Compound 220] | 50 to 100 µM

The remaining lines, values ahead:

Row | EC50 | Compound
12 | 10 to 50 µM | Cc1nc(-n2cccc2)sc1C(=O)N1CCCC(COc2ccccc2)C1 (stereo not drawn) [Compound 163]
13 | 10 to 50 µM | CN1CCc2cc(C(=O)N3CCCC(COc4ccccc4)C3)ccc21 (stereo not drawn) [Compound 181]
14 | 10 to 50 µM | COc1ccc(CCCC(=O)N2CCCC(COc3ccccc3)C2)cc1 (stereo not drawn) [Compound 182]
15 | 10 to 50 µM | Cc1cccc(-c2ccccc2C(=O)N2CCCC(COc3ccccc3)C2)c1 (stereo not drawn) [Compound 187]
16 | > 100 µM | O=C(c1cc(CC2CC2)on1)N1CCCC(COc2ccccc2)C1 (stereo not drawn) [Compound 188]
17 | 10 to 50 µM | O=C(c1cc(-c2cccc(F)c2)no1)N1CCCC(COc2ccccc2)C1 (stereo not drawn) [Compound 197]
18 | 10 to 50 µM | O=C(Cc1ccc(OC(F)F)c(F)c1)N1CCCC(COc2ccccc2)C1 (stereo not drawn) [Compound 198]
19 | 10 to 50 µM | C[C@@H]1[C@H](C(=O)N2CCCC(COc3ccccc3)C2)CCN1c1ccccc1 (stereo partly drawn) [Compound 199]
20 | 10 to 50 µM | O=C(c1ccc(F)c(OC(F)(F)F)c1)N1CCCC(COc2ccccc2)C1 (stereo not drawn) [Compound 217]
21 | 10 to 50 µM | O=C(c1cc2cccc(Cl)c2s1)N1CCCC(COc2ccccc2)C1 (stereo not drawn) [Compound 218]
22 | 10 to 50 µM | O=C([C@@H]1C[C@H]1c1ccc(F)cc1)N1CCCC(COc2ccccc2)C1 (stereo partly drawn) [Compound 219]
23 | > 100 µM | Cn1c(-c2ccc(F)cc2)nc2nc(C(=O)N3C[C@@H]4[C@@H](COc5cccnc5C(F)(F)F)[C@@H]4C3)cnc21 [Compound 223]
24 | 10 to 50 µM | Cn1c(-c2ccc(F)cc2)nc2ncc(C(=O)N3C[C@@H]4[C@@H](COc5cccnc5C(F)(F)F)[C@@H]4C3)nc21 [Compound 224]
25 | > 100 µM | CC(=O)N1CCC(c2cc3nc(C(=O)N4C[C@@H]5[C@@H](COc6cccc(C(F)(F)F)n6)[C@@H]5C4)cnc3n2C)CC1 [Compound 225, 1-(4-(5-Methyl-2-((1R,5S,6r)-6-(((6-(trifluoromethyl)pyridin-2-yl)oxy)methyl)-3-azabicyclo[3.1.0]hexane-3-carbonyl)-5H-pyrrolo[2,3-b]pyrazin-6-yl)piperidin-1-yl)ethan-1-one]
26 | 10 to 50 µM | O=C(c1cncc(-c2nncs2)n1)N1C[C@@H]2[C@@H](COc3cccc(C(F)(F)F)n3)[C@@H]2C1 [Compound 226, (1R,5S,6S)-3-[6-(1,3,4-thiadiazol-2-yl)pyrazine-2-carbonyl]-6-({[6-(trifluoromethyl)pyridin-2-yl]oxy}methyl)-3-azabicyclo[3.1.0]hexane]
27 | < 10 µM | Cn1c(-c2cccc(C(F)(F)F)n2)nc2nc(N3C[C@@H]4[C@@H](COc5cc(F)cc(F)c5)[C@@H]4C3)cnc21 [Compound 227, 5-((1R,5S,6r)-6-((3,5-difluorophenoxy)methyl)-3-azabicyclo[3.1.0]hexan-3-yl)-1-methyl-2-(6-(trifluoromethyl)pyridin-2-yl)-1H-imidazo[4,5-b]pyrazine]
